Results from patent publication US6353003B1, “Method for reducing levels of homocysteine and C-reactive protein” (Eli Lilly and Company, priority 1998, dated 2002).

Columns and labels:
homocysteine = experiment: Clinical investigation: homocysteine levels after six months versus baseline; assay type: in vivo, human; conditions: postmenopausal women, six months vs patient's baseline, p<0.05
Description: (§1) A clinical investigation was conducted which included 390 women (45-72 years old), who were an average of ten years postmenopausal. These patients were randomly assigned to the following treatment protocol: raloxifene hydrochloride at 60 mg per day via oral administration (cf. Formulation 2, supra), raloxifene at 120 mg per day, or HRT therapy. Homocysteine and C-reactive protein baseline levels were determined, prior to the initiation of therapy. Methods for such determinations are well known and can be found in the references cited, supra. The study was conducted for a period of six months. The levels of homocysteine and C-reactive protein in each patient were compared at the end of six months with that patient's baseline. Results were analyzed by variance. Raloxifene at 60 mg per day lowered levels of homocysteine by 8% (p<0.05) and C-reactive protein by 4% (NS). Raloxifene at 120 mg per day lowered homocysteine by 5.7% (p<0.05) and C-reactive protien by −3.9 (NS).

C-reactive protein = experiment: Clinical investigation: C-reactive protein levels after six months versus baseline; assay type: in vivo, human; set-up: lowered C-reactive protein: unit not given here; conditions: postmenopausal women, six months vs patient's baseline, NS
Description: as §1

SMILES: Cl.O=C(c1ccc(OCCN2CCCCC2)cc1)c1c(-c2ccc(O)cc2)sc2cc(O)ccc12 [Raloxifene, [2-(4-hydroxyphenyl)-6-hydroxybenzo [b]thien-3-yl][4-[2-(1-piperidinyl)ethoxy]phenyl]methanone hydrochloride]
- lowered levels of homocysteine (homocysteine; 60 mg per day oral): 8%
- lowered homocysteine (homocysteine; 120 mg per day): 5.7%
- lowered levels of C-reactive protein (C-reactive protein; 60 mg per day oral): 4%
- lowered C-reactive protein (C-reactive protein; 120 mg per day): −3.9
